Laboratory results: patent US7264956B2, “Compounds and methods for inhibiting axillary malodour” (Givaudan SA, priority 2001, dated 2007)
Like-named read-outs stand apart in the source and are kept apart here. Where a SMILES comes first, the peptide text is derived from it.

Columns and labels:
[1] = target: T1, enzyme extracted from Corynebacterium striatum A×20 (AMRE, Nα-acyl-glutamine-aminoacylase) (Corynebacterium striatum, UniProt Q8GGD4); assay: Substrate specificity of the enzyme (capillary GC of released acid or alcohol); format: biochemical; details: for Cleavage by enzyme: 500 ppm in Buffer A, 24 h incubation
T1 construct: an enzyme may be isolated from cellular extracts obtained from wild-type bacterial strains; endogenous in cells; host or cells: Corynebacterium striatum Ax20 (DSM 14267), mechanically disrupted; crude extract or chromatographically purified enzyme
T1 sequence (Q8GGD4 2-400): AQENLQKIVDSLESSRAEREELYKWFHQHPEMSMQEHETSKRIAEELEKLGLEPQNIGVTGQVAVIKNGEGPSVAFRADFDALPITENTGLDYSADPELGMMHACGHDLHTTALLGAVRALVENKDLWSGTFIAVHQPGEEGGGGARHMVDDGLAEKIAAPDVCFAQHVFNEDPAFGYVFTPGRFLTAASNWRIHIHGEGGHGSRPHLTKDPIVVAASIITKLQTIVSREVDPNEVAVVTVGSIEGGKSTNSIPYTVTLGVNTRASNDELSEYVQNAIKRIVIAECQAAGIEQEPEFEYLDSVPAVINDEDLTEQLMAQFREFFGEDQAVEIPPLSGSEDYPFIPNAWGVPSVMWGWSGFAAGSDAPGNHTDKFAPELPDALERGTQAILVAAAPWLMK
Protocol: To understand in detail the structural requirements of substrates, the enzyme extracted from Corynebacterium striatum A×20 was incubated with a wide variety of said compounds related to the originally isolated Nα-3-methyl-3-hydroxy-hexanoyl-L-glutamine present in sweat. Each compound was used at a concentration of 500 ppm in Buffer A, and analysis of released acid or alcohol was done by capillary GC after 24 h of incubation. First, different modifications at the N-terminus were tested.

[2] = target: T2, isolated enzyme (extracts of A×20) (Corynebacterium striatum, UniProt Q8GGD4); assay: Low throughput screening for inhibitors, isolated enzyme (released lauric acid by GC); format: biochemical; details: substrate Nα-lauroyl-L-glutamine, 2 h; for % inhibition of the isolated enzyme / inhibition at 5000 µM: 5 mM
T2 construct: an enzyme may be isolated from cellular extracts obtained from wild-type bacterial strains; endogenous in cells; host or cells: Corynebacterium striatum Ax20 (DSM 14267), mechanically disrupted; crude extract or chromatographically purified enzyme
T2 sequence (Q8GGD4 2-400): as above
Protocol: (§1) Extracts of A×20 were prepared by mechanical disruption as described in Example 3. The extract (0.5 ml corresponding to 2 ml initial cell culture) was added to 3.5 ml of Buffer A and amended with 40 μl of substrate (Nα-lauroyl-L-glutamine, 5% stock solution in methanol). Parallel samples were additionally amended with potential inhibitory compounds to give a final concentration of 0.5 and 5 mM. The samples were incubated for 2 h and then extracted with MTBE and HCI and analysed for released lauric acid using capillary GC. By comparing the samples containing potential inhibitory compounds with control samples with enzyme and substrate only, the inhibition (%) was calculated. The same assay was also made either with purified enzyme from the wild-type strain (see example 3) or with extracts from E.coli Top 10/pBADgIII AMRE induced with arabinose (see example 6). Furthermore, the same assay was made using stationary phase living cells of A×20 instead of an isolated enzyme preparation. In this case successful uptake of the inhibitors into the cells and inhibition are measured simultaneously.

[3] = target: T3, enzyme activity in living cells of A×20 (Corynebacterium striatum, UniProt Q8GGD4); assay: Low throughput screening for inhibitors, stationary phase living cells of A×20; format: cell-based; details: 5 mM; substrate Nα-lauroyl-L-glutamine, 2 h
T3 construct: stationary phase living cells of A×20; endogenous in cells; host or cells: Corynebacterium striatum Ax20, stationary-phase living cells
T3 sequence (Q8GGD4 2-400): as above
Protocol: as §1

CCC=CCCOC(=O)N[C@@H](CCC(N)=O)C(=O)O [Nα-(3-hexenyl)oxycarbonyl-L-glutamine]
cleavage of substrate by enzyme (in words) [1]: able to be cleaved

O=C(CC[C@H](NOCc1ccccc1)C(=O)O)NCc1ccccc1 [compound 22, 4-benzylcarbamoyl-2-(S)-benzyloxyamino-butyric acid]
cleavage of substrate by enzyme (in words) [1]: cannot cleave
Cleavage by enzyme [1]: −

CCCCCCCCCCCC(=O)N[C@@H](CCCCN)C(=O)O [compound 7, Nα-Lauroyl-L-lysine]
Cleavage by enzyme [1]: −

NC(=O)CC[C@H](NC(=O)OCc1ccccc1)C(=O)O [compound 4, Carbobenzyloxy-L-glutamine]
Cleavage by enzyme [1]: ++ (++ cleavage 10–50%)
cleavage of substrate by enzyme (in words) ([1]; listed as Nα-Carbobenzyloxy-L-glutamine): able to be cleaved
cleavage of substrate by enzyme (in words) ([1]; listed as Nα-carbobenzyloxy-L-glutamine): can cleave

NC(=O)CC[C@H](NC(=O)OCCC12CC3CC(CC(C3)C1)C2)C(=O)O [Nα-(2-Adamantan-1-yl-ethoxycarbonyl)-L-glutamine]
cleavage of substrate by enzyme (in words) [1]: able to be cleaved

CCCCCCCCCCCC(=O)N[C@@H](CCCNC(=N)N)C(=O)O [compound 8, Nα-Lauroyl-L-arginine]
Cleavage by enzyme [1]: −

O=C(N[C@@H](Cc1ccc(O)cc1)C(=O)O)OCc1ccccc1 [compound 15, Carbobenzyloxy-L-tyrosine]
Cleavage by enzyme [1]: −

O=C(N[C@@H](Cc1c[nH]cn1)C(=O)O)OCc1ccccc1 [compound 17, Carbobenzyloxy-L-histidine]
Cleavage by enzyme [1]: −

CCCCCCCCCCCCCC(=O)N[C@@H](CCC(N)=O)C(=O)O [Nα-tetradecanoyl-L-glutamine]
cleavage of substrate by enzyme (in words) [1]: able to be cleaved

CCCCCCCCCCCC(=O)N[C@@H](C)C(=O)O [compound 9, N-lauroyl-L-alanine]
Cleavage by enzyme [1]: + (+ indicates cleavage < 10%)

NC(=O)CC[C@H](NC(=O)OCCc1ccccc1)C(=O)O [Nα-2-Phenylethyloxycarbonyl-L-glutamine]
cleavage of substrate by enzyme (in words) [1]: able to be cleaved

O=P(O)(O)CN(CP(=O)(O)O)CP(=O)(O)O [Aminotri(methylene-phosphonic acid)]
% inhibition of the isolated enzyme [2]: 76.6%
% inhibition of enzyme activity in living cells [3]: 55.7%

CCC(NCCNC(CC)C(=O)O)C(=O)O (stereo not drawn) [Ethylen-diimino-dibutyric acid]
% inhibition of the isolated enzyme [2]: 44.3%
% inhibition of enzyme activity in living cells [3]: 53.7%

CCCC(C)(O)CC(=O)N[C@@H](CCC(N)=O)C(=O)O (stereo partly drawn) [Nα-(3-hydroxy-3-methyl-hexanoyl)-L-glutamine]
cleavage of substrate by enzyme (in words) [1]: able to be cleaved

CCCCOC(=O)N[C@@H](CCC(N)=O)C(=O)O [Nα-Butyloxycarbonyl-L-glutamine]
cleavage of substrate by enzyme (in words) [1]: able to be cleaved

CCCCCCCCCC(=O)N[C@@H](CCC(N)=O)C(=O)O [Nα-decanoyl-L-glutamine]
cleavage of substrate by enzyme (in words) [1]: able to be cleaved

O=C(O)CC[C@H](NC(=O)OCc1ccccc1)C(=O)O [compound 11, Carbobenzyloxy-L-glutamate]
Cleavage by enzyme [1]: −

CC(C)=CCCC(C)CCOC(=O)N[C@@H](CCC(N)=O)C(=O)O (stereo partly drawn) [compound 5, Nα-3,7-Dimethyl-6-octenyloxycarbonyl-L-glutamine]
cleavage of substrate by enzyme (in words) [1]: can cleave
Cleavage by enzyme [1]: +++ (+++ cleavage over 50%)

CC(C)(C)C1CCC(OC(=O)N[C@@H](CCC(N)=O)C(=O)O)CC1 (stereo partly drawn) [Nα-(4-tert-Butylcyclohexyloxycarbonyl)-L-glutamine]
cleavage of substrate by enzyme (in words) [1]: able to be cleaved

O=C(O)CNC(=O)OCc1ccccc1 [compound 16, Carbobenzyloxy-L-glycine]
Cleavage by enzyme [1]: −

O=C(O)CNCCNCC(=O)O [Ethylendiamine-2-2′-diacetic acid]
% inhibition of the isolated enzyme [2]: 100%
% inhibition of enzyme activity in living cells [3]: 58.3%

C=CCCCCCCCCC(=O)N[C@@H](CCC(N)=O)C(=O)O [Nα-(11-undecenoyl)-L-glutamine]
cleavage of substrate by enzyme (in words) [1]: able to be cleaved

O=C(O)c1cccc(C(=O)O)n1 [Pyridine-2,6dicarboxylic acid]
inhibition at 5000 µM [2]: 100%
inhibition at 5000 µM [3]: 64.3%

COc1ccc(SC(=O)N[C@@H](CCC(N)=O)C(=O)O)cc1 [Nα-(4-methoxy-phenylsulfanylcarbonyl)-L-glutamine]
cleavage of substrate by enzyme (in words) [1]: able to be cleaved

CC(CCOC(=O)N[C@@H](CCC(N)=O)C(=O)O)CCc1ccccc1 (stereo partly drawn) [Nα-(3-Methyl-5-phenylpentanoxycarbonyl)-L-glutamine]
cleavage of substrate by enzyme (in words) [1]: able to be cleaved

CCCC(C)=CC(=O)N[C@@H](CCC(N)=O)C(=O)O [Nα(3-methyl-2-hexenoyl)-L-glutamine]
cleavage of substrate by enzyme (in words) [1]: able to be cleaved

CC1=CCC(CCOC(=O)N[C@@H](CCC(N)=O)C(=O)O)C1(C)C (stereo partly drawn) [Nα-[2-(2,2,3-trimethyl-cyclopent-3-enyl)-ethoxycarbonyl)-L-glutamine]
cleavage of substrate by enzyme (in words) [1]: able to be cleaved

O=C(O)C[C@H](NC(=O)OCc1ccccc1)C(=O)O [compound 13, Carbobenzyloxy-L-aspartate]
Cleavage by enzyme [1]: −

COC(=O)[C@H](CCC(N)=O)NC(=O)OCc1ccccc1 [compound 20, Carbobenzyloxy-L-glutamine-O-Me]
cleavage of substrate by enzyme (in words) [1]: does not cleave
Cleavage by enzyme [1]: −

c1ccc(CN(CCN(Cc2ccccn2)Cc2ccccn2)Cc2ccccn2)nc1 [N,N,N′,N′-tetrakis-(2-pyridylmethyl)-ethylendiamine]
inhibition at 5000 µM [2]: 87.9%
inhibition at 5000 µM [3]: 85.2%

C[C@H](NC(=O)OCc1ccccc1)C(=O)O [compound 10, Carbobenzyloxy-L-alanine]
Cleavage by enzyme [1]: + (+ indicates cleavage < 10%)

CCCCCCCCCCCC(=O)N[C@@H](CC(=O)O)C(=O)O [compound 6, N-Lauroyl-L-aspartate]
Cleavage by enzyme [1]: −

O=C(N[C@@H](CO)C(=O)O)OCc1ccccc1 [compound 14, Carbobenzyloxy-L-serine]
Cleavage by enzyme [1]: −

CC(C)=CCCC(C)CCOC(=O)N[C@@H](CCC(N)=O)C(=O)O (stereo partly drawn) [Nα-3,7-Dimethyl-6-octenyloxycarbonyl-L-glutamine]
cleavage of substrate by enzyme (in words) [1]: able to be cleaved

NC(=O)CC[C@@H](NC(=O)OCc1ccccc1)C(=O)O [compound 19, Carbobenzyloxy-D-glutamine]
cleavage of substrate by enzyme (in words) [1]: cannot cleave
Cleavage by enzyme [1]: −

NC(=O)CC[C@H](NC(=O)OCC12CC3CC(CC(C3)C1)C2)C(=O)O [Nα-(2-Adamantan-1-yl-methoxycarbonyl)-L-glutamine]
cleavage of substrate by enzyme (in words) [1]: able to be cleaved

c1ccc(-c2ccccn2)nc1 [2,2′-bipyridyl]
inhibition at 5000 µM [2]: 65%

OC(CS)C(O)CS (stereo not drawn) [Dithiothreitol, 2,3-dihydroxy-butane-1,4-dithiol]
inhibition at 500 µM ([2]; 0.5 mM): 98%
inhibition at 5000 µM [2]: 100%

CCCCCCCCCC(=O)N[C@@H](CCC(N)=O)C(=O)O [compound 3, Nα-decanoyl-L-glutamine]
Cleavage by enzyme [1]: +++ (+++ cleavage over 50%)

NC(=O)CC[C@H](NC(=O)OCc1ccccc1)C(=O)NCC(=O)O [compound 21, Carbobenzyloxy-L-glutamine- Gly-OH] (HELM PEPTIDE1{[O=C(OCc1ccccc1)[*:2]].Q.G}$$$$V2.0)
cleavage of substrate by enzyme (in words) [1]: does not cleave
Cleavage by enzyme [1]: −

CC(C)C[C@H](NC(=O)OCc1ccccc1)C(=O)O [compound 18, Carbobenzyloxy-L-leucine]
Cleavage by enzyme [1]: −
